Data taken from patent US20250346585A1 (Alexion Pharmaceuticals, Inc., priority 2022, published 2025).

Target: Human complement C1s enzyme (Homo sapiens (Human), UniProt P09871)
Test: Human C1s enzyme assay
Format: biochemical
Conditions: Human C1s enzyme assay of Example 3; read-out: IC50 (Stars)
How it was run: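 IC50 derived by nonlinear regression of rate versus concentration, with rate taken from A405 kinetics (30 s intervals, 30 min) after adding 100 μM each Z-L-Lys-SBzl and DTNB. C1s from human serum, 1.16 nM, exposed to compound for 5 min at RT beforehand; buffer 50 mM Tris, 1 M NaCl, pH 7.5.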

Chain of Human complement C1s enzyme (P09871 438-688 limits assumed): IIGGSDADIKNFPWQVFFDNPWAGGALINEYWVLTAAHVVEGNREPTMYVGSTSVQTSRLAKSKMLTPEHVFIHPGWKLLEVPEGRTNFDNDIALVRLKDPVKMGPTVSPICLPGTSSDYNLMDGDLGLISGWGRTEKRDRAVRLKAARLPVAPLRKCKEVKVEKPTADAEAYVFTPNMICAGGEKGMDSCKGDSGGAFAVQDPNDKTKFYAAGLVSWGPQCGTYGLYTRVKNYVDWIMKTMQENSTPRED
Chain of Human complement C1s enzyme (P09871 16-437 partner limits assumed): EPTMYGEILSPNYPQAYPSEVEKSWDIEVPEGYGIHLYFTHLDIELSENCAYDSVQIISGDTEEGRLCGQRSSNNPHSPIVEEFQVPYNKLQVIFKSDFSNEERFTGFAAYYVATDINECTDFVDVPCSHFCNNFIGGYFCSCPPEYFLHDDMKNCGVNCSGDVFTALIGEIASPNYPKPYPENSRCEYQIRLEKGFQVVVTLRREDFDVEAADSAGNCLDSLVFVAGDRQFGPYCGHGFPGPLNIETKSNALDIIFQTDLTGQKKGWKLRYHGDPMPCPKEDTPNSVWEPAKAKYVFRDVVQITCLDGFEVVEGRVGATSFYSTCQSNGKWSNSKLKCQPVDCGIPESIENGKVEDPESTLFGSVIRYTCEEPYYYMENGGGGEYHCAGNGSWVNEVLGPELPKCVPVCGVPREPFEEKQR

IC50 [nM] | SMILES
< 100 | C[C@@H](NC(=O)[C@@H]1CC2(CN1C(=O)CNC(=O)c1ccc(-c3ccc(F)cn3)cc1)OCCO2)c1cc(C(=N)N)cs1 [Compound 164, (S)—N—((R)-1-(4-carbamimidoylthiophen-2-yl)ethyl)-7-((4-(5-fluoropyridin-2-yl)benzoyl)glycyl)-1,4-dioxa-7-azaspiro[4.4]nonane-8-carboxamide]
< 100 | N=C(N)c1csc(CNC(=O)[C@@H]2CC3(CN2C(=O)CNC(=O)c2ccc(-c4ccsc4)cc2)OCCO3)c1 [Compound 165, (S)-N-((4-carbamimidoylthiophen-2-yl)methyl)-7-((4-(thiophen-3-yl)benzoyl)glycyl)-1,4-dioxa-7-azaspiro[4.4]nonane-8-carboxamide]
< 100 | C[C@@H](NC(=O)[C@@H]1CC2(CN1C(=O)CNC(=O)c1ccc(-c3cc(F)ccc3F)cc1)OCCO2)c1cc(C(=N)N)cs1 [Compound 166, (S)—N—((R)-1-(4-carbamimidoylthiophen-2-yl)ethyl)-7-((2′,5′-difluoro-[1,1′-biphenyl]-4-carbonyl)glycyl)-1,4-dioxa-7-azaspiro[4.4]nonane-8-carboxamide]
< 100 | C[C@@H](NC(=O)[C@@H]1C[C@@H](S(C)(=O)=O)CN1C(=O)CNC(=O)c1ccc(C(F)(F)c2ccccc2)cc1)c1cc(C(=N)N)cs1 [Compound 168, (2S,4R)—N—((R)-1-(4-carbamimidoylthiophen-2-yl)ethyl)-1-((4-(difluoro(phenyl)methyl)benzoyl)glycyl)-4-(methylsulfonyl)pyrrolidine-2-carboxamide]
< 100 | Cc1ccc(-c2ccc(C(=O)NCC(=O)N3CC4(C[C@H]3C(=O)N[C@H](C)c3cc(C(=N)N)cs3)OCCO4)cc2)c(C)c1 [Compound 169, (S)—N—((R)-1-(4-carbamimidoylthiophen-2-yl)ethyl)-7-((2′,4′-dimethyl-[1,1′-biphenyl]-4-carbonyl)glycyl)-1,4-dioxa-7-azaspiro[4.4]nonane-8-carboxamide]
< 100 | C[C@@H](NC(=O)[C@@H]1CC2(CN1C(=O)CNC(=O)c1ccc3[nH]c4ccccc4c3c1)OCCO2)c1cc(C(=N)N)cs1 [Compound 170, (S)-7-((9H-carbazole-3-carbonyl)glycyl)-N—((R)-1-(4-carbamimidoylthiophen-2-yl)ethyl)-1,4-dioxa-7-azaspiro[4.4]nonane-8-carboxamide]
< 100 | C[C@@H](NC(=O)[C@@H]1C[C@H](c2nccs2)CN1C(=O)CNC(=O)c1ccc(Oc2ccc(F)cc2)cc1)c1cc(C(=N)N)cs1 [Compound 171, (2S,4S)—N—((R)-1-(4-carbamimidoylthiophen-2-yl)ethyl)-1-((4-(4-fluorophenoxy)benzoyl)glycyl)-4-(thiazol-2-yl)pyrrolidine-2-carboxamide]
< 100 | C[C@@H](NC(=O)[C@@H]1C[C@H](c2nccs2)CN1C(=O)CNC(=O)c1ccc2c(c1)-c1ccccc1C2(F)F)c1cc(C(=N)N)cs1 [Compound 172, (2S,4S)—N—((R)-1-(4-carbamimidoylthiophen-2-yl)ethyl)-1-((9,9-difluoro-9H-fluorene-3-carbonyl)glycyl)-4-(thiazol-2-yl)pyrrolidine-2-carboxamide]
< 100 | Cc1cnc(-c2ccc(C(=O)NCC(=O)N3CC4(C[C@H]3C(=O)N[C@H](C)c3cc(C(=N)N)cs3)OCCO4)cc2)c(C)c1 [Compound 173, (S)—N—((R)-1-(4-carbamimidoylthiophen-2-yl)ethyl)-7-((4-(3,5-dimethylpyridin-2-yl)benzoyl)glycyl)-1,4-dioxa-7-azaspiro[4.4]nonane-8-carboxamide]
< 100 | C[C@@H](NC(=O)[C@@H]1CC2(CN1C(=O)CNC(=O)c1ccc(-c3ccc(Cl)cc3F)cc1)OCCO2)c1cc(C(=N)N)cs1 [Compound 174, (S)—N—((R)-1-(4-carbamimidoylthiophen-2-yl)ethyl)-7-((4′-chloro-2′-fluoro-[1,1′-biphenyl]-4-carbonyl)glycyl)-1,4-dioxa-7-azaspiro[4.4]nonane-8-carboxamide]
< 100 | C[C@@H](NC(=O)[C@@H]1CC2(CN1C(=O)CNC(=O)c1ccc(-c3ccc(F)cc3)c(F)c1)OCCO2)c1cc(C(=N)N)cs1 [Compound 175, (S)—N—((R)-1-(4-carbamimidoylthiophen-2-yl)ethyl)-7-((2,4′-difluoro-[1,1′-biphenyl]-4-carbonyl)glycyl)-1,4-dioxa-7-azaspiro[4.4]nonane-8-carboxamide]
< 100 | C[C@@H](NC(=O)[C@@H]1CC2(CN1C(=O)CNC(=O)c1ccc(-c3ccc(F)cc3Cl)cc1)OCCO2)c1cc(C(=N)N)cs1 [Compound 176, (S)—N—((R)-1-(4-carbamimidoylthiophen-2-yl)ethyl)-7-((2′-chloro-4′-fluoro-[1,1′-biphenyl]-4-carbonyl)glycyl)-1,4-dioxa-7-azaspiro[4.4]nonane-8-carboxamide]
< 100 | Cc1cccc2c1-c1cc(C(=O)NCC(=O)N3CC4(C[C@H]3C(=O)N[C@H](C)c3cc(C(=N)N)cs3)OCCO4)ccc1C2(F)F [Compound 177, (S)—N—((R)-1-(4-carbamimidoylthiophen-2-yl)ethyl)-7-((9,9-difluoro-5-methyl-9H-fluorene-3-carbonyl)glycyl)-1,4-dioxa-7-azaspiro[4.4]nonane-8-carboxamide]
< 100 | C[C@@H](NC(=O)[C@@H]1C[C@@H](S(C)(=O)=O)CN1C(=O)CNC(=O)c1ccc2c(c1)-c1ccccc1C2(C)C)c1cc(C(=N)N)cs1 [Compound 178, (2S,4R)—N—((R)-1-(4-carbamimidoylthiophen-2-yl)ethyl)-1-((9,9-dimethyl-9H-fluorene-3-carbonyl)glycyl)-4-(methylsulfonyl)pyrrolidine-2-carboxamide]
< 100 | Cc1cc(C(=O)NCC(=O)N2CC3(C[C@H]2C(=O)N[C@H](C)c2cc(C(=N)N)cs2)OCCO3)cc2c1C(F)(F)c1ccccc1-2 [Compound 179, (S)—N—((R)-1-(4-carbamimidoylthiophen-2-yl)ethyl)-7-((9,9-difluoro-1-methyl-9H-fluorene-3-carbonyl)glycyl)-1,4-dioxa-7-azaspiro[4.4]nonane-8-carboxamide]
< 100 | C[C@@H](NC(=O)[C@@H]1CC2(CN1C(=O)CNC(=O)c1cc(F)c(-c3ccc(F)cc3)cn1)OCCO2)c1cc(C(=N)N)cs1 [Compound 181, (S)—N—((R)-1-(4-carbamimidoylthiophen-2-yl)ethyl)-7-((4-fluoro-5-(4-fluorophenyl)picolinoyl)glycyl)-1,4-dioxa-7-azaspiro[4.4]nonane-8-carboxamide]
< 100 | Cc1cccc2c1C(F)(F)c1ccc(C(=O)NCC(=O)N3CC4(C[C@H]3C(=O)N[C@H](C)c3cc(C(=N)N)cs3)OCCO4)cc1-2 [Compound 182, (S)—N—((R)-1-(4-carbamimidoylthiophen-2-yl)ethyl)-7-((9,9-difluoro-8-methyl-9H-fluorene-3-carbonyl)glycyl)-1,4-dioxa-7-azaspiro[4.4]nonane-8-carboxamide]
< 100 | CS(=O)(=O)c1ccc(-c2ccc(C(=O)NCC(=O)N3CC4(C[C@H]3C(=O)NCc3cc(C(=N)N)cs3)OCCO4)cc2)cc1 [Compound 183, (S)—N-((4-carbamimidoylthiophen-2-yl)methyl)-7-((4′-(methylsulfonyl)-[1,1′-biphenyl]-4-carbonyl)glycyl)-1,4-dioxa-7-azaspiro[4.4]nonane-8-carboxamide]
> 1000 | Nc1csc(-c2csc(CNC(=O)[C@@H]3CC4(CN3C(=O)CNC(=O)c3ccc(Oc5ccc(F)cc5)cc3)OCCO4)c2)n1 [Compound 184, (S)—N-((4-(4-aminothiazol-2-yl)thiophen-2-yl)methyl)-7-((4-(4-fluorophenoxy)benzoyl)glycyl)-1,4-dioxa-7-azaspiro[4.4]nonane-8-carboxamide]
< 100 | Nc1cnc(-c2csc(CNC(=O)[C@@H]3CC4(CN3C(=O)CNC(=O)c3ccc(Oc5ccc(F)cc5)cc3)OCCO4)c2)s1 [Compound 185, (S)—N-((4-(5-aminothiazol-2-yl)thiophen-2-yl)methyl)-7-((4-(4-fluorophenoxy)benzoyl)glycyl)-1,4-dioxa-7-azaspiro[4.4]nonane-8-carboxamide]
> 1000 | Nc1nc(-c2csc(CNC(=O)[C@@H]3CC4(CN3C(=O)CNC(=O)c3ccc(Oc5ccc(F)cc5)cc3)OCCO4)c2)cs1 [Compound 186, (S)—N-((4-(2-aminothiazol-4-yl)thiophen-2-yl)methyl)-7-((4-(4-fluorophenoxy)benzoyl)glycyl)-1,4-dioxa-7-azaspiro[4.4]nonane-8-carboxamide]
> 1000 | Nc1ncc(-c2csc(CNC(=O)[C@@H]3CC4(CN3C(=O)CNC(=O)c3ccc(Oc5ccc(F)cc5)cc3)OCCO4)c2)s1 [Compound 187, (S)—N-((4-(2-aminothiazol-5-yl)thiophen-2-yl)methyl)-7-((4-(4-fluorophenoxy)benzoyl)glycyl)-1,4-dioxa-7-azaspiro[4.4]nonane-8-carboxamide]
< 100 | N=C(N)c1csc(CNC(=O)[C@@H]2CC3(CN2C(=O)CNC(=O)c2ccc(-c4cc(F)ccc4F)cc2)OCCO3)c1 [Compound 188, (S)—N-((4-carbamimidoylthiophen-2-yl)methyl)-7-((2′,5′-difluoro-[1,1′-biphenyl]-4-carbonyl)glycyl)-1,4-dioxa-7-azaspiro[4.4]nonane-8-carboxamide]
< 100 | N=C(N)c1csc(CNC(=O)[C@@H]2CC3(CN2C(=O)CNC(=O)c2ccc(-c4cc(F)cc(F)c4)cc2)OCCO3)c1 [Compound 189, (S)—N-((4-carbamimidoylthiophen-2-yl)methyl)-7-((3′,5′-difluoro-[1,1′-biphenyl]-4-carbonyl)glycyl)-1,4-dioxa-7-azaspiro[4.4]nonane-8-carboxamide]

SMILES | IC50 [nM]
Cc1ccc2c(c1)-c1cc(C(=O)NCC(=O)N3CC4(C[C@H]3C(=O)N[C@H](C)c3cc(C(=N)N)cs3)OCCO4)ccc1C2(F)F [Compound 180, (S)—N—((R)-1-(4-carbamimidoylthiophen-2-yl)ethyl)-7-((9,9-difluoro-6-methyl-9H-fluorene-3-carbonyl)glycyl)-1,4-dioxa-7-azaspiro[4.4]nonane-8-carboxamide] | < 100
